# Measured values: PubChem BioAssay (NCI)
#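 Method: 48-hour compound exposure of cells in 96-well plates, five concentrations, linear interpolation of endpoints. Abbreviation: GI50, concentration required for 50% inhibition of growth. TGI denotes the concentration required for complete inhibition of growth.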
# How the values were obtained:
# Test in all cases: DTP human tumour cell line panel, 48 h
# COLO 205 colon = tested on: COLO 205 colon
# NCI-H23 lung = tested on: NCI-H23 lung
# CAKI-1 renal = tested on: CAKI-1 renal
# SK-OV-3 ovarian = tested on: SK-OV-3 ovarian
# OVCAR-5 ovarian = tested on: OVCAR-5 ovarian
# HCT-15 colon = tested on: HCT-15 colon
# MALME-3M melanoma = tested on: MALME-3M melanoma
# RPMI-8226 leukemia = tested on: RPMI-8226 leukemia
# MCF7 breast = tested on: MCF7 breast
# BT-549 breast = tested on: BT-549 breast
Structure (SMILES),GI50 (COLO 205 colon),TGI (COLO 205 colon),GI50 (NCI-H23 lung),TGI (NCI-H23 lung),GI50 (CAKI-1 renal),TGI (CAKI-1 renal),GI50 (SK-OV-3 ovarian),TGI (SK-OV-3 ovarian),GI50 (OVCAR-5 ovarian),TGI (OVCAR-5 ovarian),GI50 (HCT-15 colon),TGI (HCT-15 colon),GI50 (MALME-3M melanoma),TGI (MALME-3M melanoma),TGI (RPMI-8226 leukemia),GI50 (MCF7 breast),TGI (MCF7 breast),GI50 (BT-549 breast),TGI (BT-549 breast),GI50 (RPMI-8226 leukemia)
COc1ccc(-c2ccc(-c3ccc(C(=N)N)nc3)s2)cc1,1.89 µM,3.92 µM,1.84 µM,3.46 µM,1.64 µM,3 µM,1.7 µM,3.23 µM,1.67 µM,3.11 µM,1.27 µM,2.7 µM,1.84 µM,3.44 µM,,,,,,
O=C(NO)c1ccc([N+](=O)[O-])cc1,,94 µM,,> 100 µM,,> 100 µM,,> 100 µM,,,,> 100 µM,,> 100 µM,> 100 µM,,,,,
N#CC(C#N)=CN1CCN(C(=O)c2ccco2)C1=S,16.5 µM,70.5 µM,5.78 µM,22.5 µM,4.76 µM,30.5 µM,33.1 µM,86.5 µM,,,5.23 µM,> 100 µM,47.8 µM,> 100 µM,> 100 µM,3.45 µM,28.4 µM,6.85 µM,54.6 µM,4.53 µM
O=C(O)C(=C\c1ccc2c(c1)OCO2)/C(=C/c1ccc2c(c1)OCO2)C(=O)O,,> 100 µM,,> 100 µM,,> 100 µM,,> 100 µM,,> 100 µM,,> 100 µM,,> 100 µM,> 100 µM,,> 100 µM,,> 100 µM,
Cc1c(C#N)c2nnn(C)c(=O)n2c1-c1ccccc1,,,,> 100 µM,,> 100 µM,,> 100 µM,,> 100 µM,,> 100 µM,,,> 100 µM,,> 100 µM,,> 100 µM,
